Series [1] deals with red cells. Put plainly: Red cell hemolysis at day 42 for DMMB+light treated samples in a flow system. As to conditions: for Hemolysis (%), day 42: approximately 3.5 μM DMMB, no blocker, stored at 1-6° C.
Series [2] concerns VSV. In kind it is cell-based, vesicular stomatitis virus.
For series [3], the system named is red blood cells. As to conditions: with type 1/type 2 quenchers, optimized conditions; cited from earlier work.

Values joined by “and” are separate entries in the source; they are usually repeats but may differ in a detail not shown here. Identical values can stand only once.

Here are results for three compounds from patent US20010046662A1, “Method of inactivating pathogens in a red blood cell-containing composition” (priority 2000, published 2001).

For `Cc1cc(N(C)C)cc2[s+]c3cc(N(C)C)cc(C)c3nc12` [DMMB, 1,9-dimethylmethylene blue], the “Hemolysis (%), day 42” value is 2.8% and 2.84% in series [1] (light fluence 226 mJ/cm^2); 14.5% and 14.53% in series [1] (light fluence 889 mJ/cm^2); 12.10% in series [1] (light fluence 1597 mJ/cm^2). Also, in series [1] (samples lacking riboflavin, 2.8 to 14.5%), the “increase in hemolysis with greater light fluences” value is listed as 500%. In addition, in series [2], the “increase in VSV inactivation with greater light fluences” value turned out to be 50%.

For the compound `Cc1cc2nc3c(=O)[nH]c(=O)nc-3n(C[C@H](O)[C@H](O)[C@H](O)CO)c2cc1C` [riboflavin, 7,8-dimethyl-10-ribitylisoalloxazine], the “enhancement of VSV inactivation by addition of the blocker” value in series [2] is on record as above 4.1 log10.

As for phthalocyanine 4, in series [3], the “cells that hemolyze after 21 days of storage” value is given as “about 2%”.
